Experiment [1] concerns DAPI. Kind of experiment: TAG lipid buildup inhibition with viability readout – cell-based, panel, Nile Red and DAPI fluorescence, H9c2, dose response (AID 651630).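 Note: cells exposed to compound overnight before fixation and staining.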 Particulars: H9c2 cells, DAPI nuclear fluorescence (cytotoxicity counter-readout), oleic acid.
The subject of experiment [2] is TAG. The description is as above. The following applies: H9c2 cells, Nile Red TAG fluorescence, oleic acid.

Activity calls are given as the source filed them.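 Rule for the calls: active = lipid-stain IC50 at or below a set limit, with nuclear-stain toxicity IC50 at least five times higher; inactive = the rest.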 Bounds are passed on as bounds.

For orientation: IC50 means the point on the concentration scale where inhibition reaches its midpoint. Regarding `COc1ccc(C#Cc2ccc3c(c2)O[C@@H](CN(C)C(=O)Nc2cccc(OC)c2)[C@H](C)CN([C@@H](C)CO)S3(=O)=O)cc1`, the IC50 cytotoxicity (DAPI nuclear signal decrease) was > 25 µM (inactive) in experiment [1] (mean of runs), greater than 25 µM in experiment [1] (run 1) and greater than 25 µM in experiment [1] (run 2). Besides, the values for the IC50 in experiment [2] (mean of runs), in experiment [2] (run 1) and in experiment [2] (run 2) were 8.47 µM, 7.39 µM and 9.55 µM, respectively.

`CC(=O)Nc1ccc(NC2=Nc3ccccc3N3C2=Nc2c(c(C)nn2-c2ccccc2)C3c2ccccc2)cc1` (centres undefined): the figures for the IC50 cytotoxicity (DAPI nuclear signal decrease) in experiment [1] (mean of runs), in experiment [1] (run 1) and in experiment [1] (run 2) were > 25 µM (inactive), greater than 25 µM and greater than 25 µM, respectively. Besides, the IC50 in experiment [2] (mean of runs) is > 25 µM (inactive); in experiment [2] (run 1) it was greater than 25 µM; in experiment [2] (run 2), greater than 25 µM.

For `CN(C)CCCn1c(=O)n(CCc2ccccc2)c(=O)c2c3c(sc21)CCCCC3`, the IC50 cytotoxicity (DAPI nuclear signal decrease) is greater than 25 µM in experiment [1] (run 1) and 16.2 µM in experiment [1] (run 2). Further, the IC50 in experiment [2] (mean of runs) was > 25 µM (inactive); in experiment [2] (run 1), greater than 25 µM; in experiment [2] (run 2) it was greater than 25 µM.

As to `N#CC(C#N)=c1ccc2c(c1)N1C(c3ccccc3)=CC(c3ccccc3)C3CCCCC31N=2` (centres undefined), the IC50 cytotoxicity (DAPI nuclear signal decrease) in experiment [1] (run 1) and in experiment [1] (run 2) was greater than 25 µM throughout. The 50% inhibitory concentration (IC50) in experiment [2] (mean of runs) is 1.92 µM; in experiment [2] (run 1), 1.59 µM; in experiment [2] (run 2), 2.25 µM.

As to `CCOC(=O)[C@H]1[C@H]2COc3ccc(Cl)cc3[C@@H]2N2C(=O)c3cc(Cl)ccc3NC(=O)[C@@]12C`, the IC50 cytotoxicity (DAPI nuclear signal decrease) in experiment [1] (mean of runs) is > 25 µM (inactive); in experiment [1] (run 1), greater than 25 µM; in experiment [1] (run 2) it was greater than 25 µM. The IC50 in experiment [2] (mean of runs) was 9.03 µM; in experiment [2] (run 1), 11.6 µM; in experiment [2] (run 2), 6.41 µM.

As for `O=C(NCCc1c[nH]c2ccccc12)C1CCC(Cn2c(=S)[nH]c3ccccc3c2=O)CC1` (centres undefined), the IC50 cytotoxicity (DAPI nuclear signal decrease) in experiment [1] (mean of runs) was > 25 µM (inactive); in experiment [1] (run 1) it was greater than 25 µM; in experiment [1] (run 2), greater than 25 µM. The IC50 is greater than 25 µM in experiment [2] (run 1) and 22.2 µM in experiment [2] (run 2).

In the case of `Cc1noc(C)c1-c1ccc2ncnc(NCC3CCCCN3C)c2c1` (centres undefined), the values for the IC50 cytotoxicity (DAPI nuclear signal decrease) in experiment [1] (mean of runs), in experiment [1] (run 1) and in experiment [1] (run 2) were > 25 µM (inactive), greater than 25 µM and greater than 25 µM, respectively. The IC50 was > 25 µM (inactive) in experiment [2] (mean of runs), greater than 25 µM in experiment [2] (run 1) and greater than 25 µM in experiment [2] (run 2).

Regarding `Cc1ccccc1NC(=O)CSc1nc(Nc2ccccc2)nc(N2CCOCC2)n1`, the IC50 cytotoxicity (DAPI nuclear signal decrease) in experiment [1] (mean of runs) is > 25 µM (inactive); in experiment [1] (run 1), greater than 25 µM; in experiment [1] (run 2), greater than 25 µM. The IC50 in experiment [2] (mean of runs) was 12.9 µM; in experiment [2] (run 1), 15.7 µM; in experiment [2] (run 2), 10 µM.

Regarding `COc1cc(OC)nc(Nc2nc(C(N)Cc3ccc(Cl)cc3)cs2)n1` (centres undefined), the IC50 cytotoxicity (DAPI nuclear signal decrease) in experiment [1] (mean of runs) was > 25 µM (inactive); in experiment [1] (run 1) it was greater than 25 µM; in experiment [1] (run 2) it was greater than 25 µM. For the same compound, the IC50 in experiment [2] (run 1) was greater than 25 µM; in experiment [2] (run 2), 23.4 µM.

On to `COc1ccc2[nH]c3c(c2c1)CCN1C(=O)C(CC(=O)NC/C=C(\C)CCC=C(C)C)C[C@H](C(=O)N(C(C)C)C(C)C)[C@@]31C` (some centres undefined), for which the values for the IC50 cytotoxicity (DAPI nuclear signal decrease) in experiment [1] (run 1) and in experiment [1] (run 2) were 19.8 µM and greater than 25 µM, respectively. Besides, the IC50 was 19.3 µM (inactive) in experiment [2] (mean of runs), 19.5 µM in experiment [2] (run 1) and 19.1 µM in experiment [2] (run 2).

With `O=C(Cn1cc[n+](CC(=O)c2ccc(Cl)cc2Cl)c1)c1ccc(Cl)cc1Cl`, the results for the IC50 cytotoxicity (DAPI nuclear signal decrease) in experiment [1] (mean of runs), in experiment [1] (run 1) and in experiment [1] (run 2) were > 25 µM (inactive), greater than 25 µM and greater than 25 µM, respectively. Besides, the IC50 is greater than 25 µM in experiment [2] (run 1) and 20.9 µM in experiment [2] (run 2).

Turning to `CN(C)C(=S)N=c1ssc(=S)n1Cc1ccco1`, the IC50 cytotoxicity (DAPI nuclear signal decrease) in experiment [1] (mean of runs) was > 25 µM (inactive); in experiment [1] (run 1) it was greater than 25 µM; in experiment [1] (run 2) it was greater than 25 µM. Also, the IC50 in experiment [2] (mean of runs) was > 25 µM (inactive); in experiment [2] (run 1), greater than 25 µM; in experiment [2] (run 2), greater than 25 µM.

On to `COc1cc([C@@H]2c3cc4c(cc3[C@H](O)[C@H]3COC(=O)[C@H]23)OCO4)cc(OC)c1OC`, for which the IC50 cytotoxicity (DAPI nuclear signal decrease) was > 25 µM (inactive) in experiment [1] (mean of runs), greater than 25 µM in experiment [1] (run 1) and greater than 25 µM in experiment [1] (run 2). For the same compound, the IC50 is > 25 µM (inactive) in experiment [2] (mean of runs), greater than 25 µM in experiment [2] (run 1) and greater than 25 µM in experiment [2] (run 2).

Turning to `COc1cc(NC(=O)Nc2nc(C(N)Cc3ccc(C(F)(F)F)cc3)cs2)cc(OC)c1OC` (centres undefined), the IC50 cytotoxicity (DAPI nuclear signal decrease) in experiment [1] (run 1) is 24.9 µM; in experiment [1] (run 2), greater than 25 µM. Besides, the IC50 in experiment [2] (mean of runs) is 6.47 µM; in experiment [2] (run 1), 7.7 µM; in experiment [2] (run 2), 5.24 µM.

As for `Cc1cc(N/N=C/c2cccc(Cl)c2)nc(-n2nc(C)cc2C)n1`, the IC50 cytotoxicity (DAPI nuclear signal decrease) in experiment [1] (mean of runs) was > 25 µM (inactive); in experiment [1] (run 1), greater than 25 µM; in experiment [1] (run 2) it was greater than 25 µM. Also, the IC50 in experiment [2] (mean of runs) is > 25 µM (inactive); in experiment [2] (run 1), greater than 25 µM; in experiment [2] (run 2), greater than 25 µM.

Regarding `Cc1cc(C)cc(-n2c3ccc(NC(=O)Cc4cccc5ccccc45)cc3c(=O)n2C)c1`, the results for the IC50 cytotoxicity (DAPI nuclear signal decrease) in experiment [1] (mean of runs), in experiment [1] (run 1) and in experiment [1] (run 2) were > 25 µM (inactive), greater than 25 µM and greater than 25 µM, respectively. Further, the IC50 is 21.7 µM in experiment [2] (run 1) and greater than 25 µM in experiment [2] (run 2).

For `CCOC(=O)[C@@H]1[C@H]2COc3ccc(Br)cc3[C@@H]2N2C(=O)N(c3ccc(C(F)(F)F)cc3)C(=O)[C@@]12C`, the IC50 cytotoxicity (DAPI nuclear signal decrease) in experiment [1] (run 1) and in experiment [1] (run 2) was greater than 25 µM throughout. The figures for the IC50 in experiment [2] (mean of runs), in experiment [2] (run 1) and in experiment [2] (run 2) were 3.24 µM, 2.27 µM and 4.21 µM, respectively.

Take `CCOC(=O)c1c(NC(C)=O)sc2c(OCC(O)CN(CC)CC)c(Br)ccc12` (centres undefined): the IC50 cytotoxicity (DAPI nuclear signal decrease) in experiment [1] (mean of runs) is > 25 µM (inactive); in experiment [1] (run 1) it was greater than 25 µM; in experiment [1] (run 2), greater than 25 µM. Also, the figures for the concentration for half-maximal inhibition (IC50) in experiment [2] (run 1) and in experiment [2] (run 2) were greater than 25 µM and 22.1 µM, respectively.

As to `Cc1c(C#N)c(O)n(CCO)c(=O)c1N=Nc1ccc2c(c1)COC2=O`, the IC50 cytotoxicity (DAPI nuclear signal decrease) in experiment [1] (mean of runs) is 19.9 µM (inactive); in experiment [1] (run 1) it was 24.4 µM; in experiment [1] (run 2), 15.3 µM. Besides, the IC50 is 16.5 µM (inactive) in experiment [2] (mean of runs), 14.3 µM in experiment [2] (run 1) and 18.6 µM in experiment [2] (run 2).

For the compound `Cc1cc(NC(=O)CC2CCCC2)n(-c2nc3ccccc3[nH]2)n1`, the IC50 cytotoxicity (DAPI nuclear signal decrease) in experiment [1] (mean of runs) was > 25 µM (inactive); in experiment [1] (run 1), greater than 25 µM; in experiment [1] (run 2), greater than 25 µM. Besides, the half-inhibitory concentration (IC50) in experiment [2] (run 1) was greater than 25 µM; in experiment [2] (run 2), 11.2 µM.

With `Clc1cccc(Nc2nc(-c3ccncc3)cs2)c1`, the IC50 cytotoxicity (DAPI nuclear signal decrease) was > 25 µM (inactive) in experiment [1] (mean of runs), greater than 25 µM in experiment [1] (run 1) and greater than 25 µM in experiment [1] (run 2). Further, the IC50 in experiment [2] (mean of runs) is > 25 µM (inactive); in experiment [2] (run 1), greater than 25 µM; in experiment [2] (run 2), greater than 25 µM.

Take `COc1cc(CNC(=O)Nc2nc(C(N)Cc3ccc(Cl)cc3)cs2)cc(OC)c1OC` (centres undefined): the IC50 cytotoxicity (DAPI nuclear signal decrease) in experiment [1] (run 1) and in experiment [1] (run 2) was greater than 25 µM throughout. Also, the concentration for half-maximal inhibition (IC50) in experiment [2] (mean of runs) is 3.91 µM; in experiment [2] (run 1), 3.31 µM; in experiment [2] (run 2), 4.5 µM.

As for `Cc1cc(C)c2nc(NC(=O)c3ccc([N+](=O)[O-])o3)sc2c1`, the IC50 cytotoxicity (DAPI nuclear signal decrease) is > 25 µM (inactive) in experiment [1] (mean of runs), greater than 25 µM in experiment [1] (run 1) and greater than 25 µM in experiment [1] (run 2). For the same compound, the IC50 in experiment [2] (mean of runs) is > 25 µM (inactive); in experiment [2] (run 1) it was greater than 25 µM; in experiment [2] (run 2), greater than 25 µM.

As for `Cc1cccc(-c2ccc3[nH]c4c(c3c2)CCN2C[C@@H]([C@H](C)O)[C@@H](N(C)C(=O)Nc3ccc(F)cc3)C[C@@H]42)c1`, the values for the IC50 cytotoxicity (DAPI nuclear signal decrease) in experiment [1] (mean of runs), in experiment [1] (run 1) and in experiment [1] (run 2) were > 25 µM (inactive), greater than 25 µM and greater than 25 µM, respectively. The figures for the IC50 in experiment [2] (run 1) and in experiment [2] (run 2) were 18 µM and greater than 25 µM, respectively.

Take `O=C(CSc1nc2ccc(Nc3nc(N4CCOCC4)nc(N4CCOCC4)n3)cc2s1)NCc1ccco1`: the IC50 cytotoxicity (DAPI nuclear signal decrease) in experiment [1] (mean of runs) was > 25 µM (inactive); in experiment [1] (run 1) it was greater than 25 µM; in experiment [1] (run 2) it was greater than 25 µM. The results for the IC50 in experiment [2] (mean of runs), in experiment [2] (run 1) and in experiment [2] (run 2) were 7.1 µM, 7.74 µM and 6.45 µM, respectively.

Consider `O=C(Cc1coc2ccc3ccccc3c12)Nc1nccs1`, for which the IC50 cytotoxicity (DAPI nuclear signal decrease) in experiment [1] (mean of runs) is > 25 µM (inactive); in experiment [1] (run 1), greater than 25 µM; in experiment [1] (run 2), greater than 25 µM. The values for the IC50 in experiment [2] (mean of runs), in experiment [2] (run 1) and in experiment [2] (run 2) were > 25 µM (inactive), greater than 25 µM and greater than 25 µM, respectively.

With `Brc1ccc(C2=Nn3c(nnc3-c3n[nH]c4c3CCC4)SC2)cc1`, the results for the IC50 cytotoxicity (DAPI nuclear signal decrease) in experiment [1] (mean of runs), in experiment [1] (run 1) and in experiment [1] (run 2) were > 25 µM (inactive), greater than 25 µM and greater than 25 µM, respectively. Moreover, the IC50 in experiment [2] (mean of runs) was 13.8 µM; in experiment [2] (run 1), 9.45 µM; in experiment [2] (run 2) it was 18.1 µM.

The values above are taken from PubChem BioAssay AID651630 (Sanford-Burnham Center for Chemical Genomics, 2012).
